The test system of one assay is S408 of IRS-1. As to the kind of experiment: In vivo phosphorylation of S408 of IRS-1 in cultured Fao cells. It is filed as cell-based, rat. To be noted: Fao cells infected with IRS-1^WT. Here is the method:
Following 48 hours, the cells were starved for 16 hours. The medium was removed and the cells were incubated with or without 100 nM insulin for the indicated times (FIG. 10a). Alternatively, the cells were incubated with insulin, SMase or calyculin A as indicated (FIG. 10b). Cytosolic extracts (100 μg) were resolved on 7.5% SDS-PAGE and immunoblotted with anti-phospho-Ser 408 antibody or anti-PY antibodies as indicated.
Infection of Fao cells with adenovirus—Fao cells were grown in RPMI medium containing 10% FCS. At 70% confluence cells were infected with adenoviruses harboring the gene of interest at a titer of 7 10^7 PFU/ml. After incubation for 2 h hours at 37° C., the virus-containing medium was diluted 1:5 in fresh RPMI medium. After 24 h the medium was replaced with a fresh RPMI medium containing 10% FCS. 48 h post-infection the Fao cells were starved in serum-free RPMI for 16 h and were then subjected to the indicated treatments as described below.
Treatment of cells and preparation of extracts—Virally-infected Fao cells were grown as described above. Nave Rat hepatoma (Fao) cells or CHO cells were grown in RPMI medium supplemented with 10% fetal calf serum as described (22). At 70-80% confluence, cells were deprived of serum for 16 h prior to each experiment, and were then incubated with inducers of insulin resistance and/or insulin. […]

For another assay, the system named is CHO-T cells. Briefly: Phosphorylation (mobility shift) of truncated IRS-1 PH/PTB constructs in CHO-T cells. It is filed as cell-based, Chinese Hamster. Here is the method:
FIGS. 7a-c show In vivo phosphorylation of PH/PTB-L in response to insulin. CHO-T cells were transiently transfected with pcDNA3-Myc-PH/PTB (1-1290 nt) or with an insert-free plasmid (control). Twenty-four hours post-transfection, the cells were deprived of serum for 16 h and were then treated with insulin for the indicated time periods. Cell extracts (100 μg) were resolved on 10% SDS-PAGE and immunoblotted with anti-pY or anti-Myc antibodies (FIG. 7a). In parallel, samples (100 μg, 40 μl) were incubated with 3 units (U) of calf intestine phosphatase (CIP) at 37° C. for 1 h. The samples were resolved on 10% SDS-PAGE and immunoblotted with anti-Myc antibodies (FIG. 7b). The results are of a representative of two experiments. FIG. 7c—CHO^PH/PTB-L cells were starved in serum-free F12 medium for 16 h. The cells were treated for 30 min with the indicated inhibitors prior to being treated with 100 nM insulin for 30 min. Cell extracts were prepared, samples were resolved on 10% SDS-PAGE and were immunoblotted with anti-Myc antibodies. Results are of a representative of three experiments.
FIGS. 8a-b show the effects of insulin on Serine phosphorylation of Myc-PH/PTB-L^7A CHO-T cells were transiently transfected with constructs encoding Myc-PH/PTB-L (1-1290 nt), either wild type (WT) or the 7A mutant (FIG. 8a). Alternatively, the cells were transfected or with the constructs encoding Myc-PH/PTB-L (1-1290 nt; 1-430 aa) or Myc-PH/PTB-S (1-1095 nt; 1-365 aa, FIG. 8b). Following 24 hours in culture, the cells were incubated in serum-free F12 medium for 16 ch prior to being treated with insulin for the indicated times. Cell extracts were resolved on 10% SDS-PAGE and immunoblotted with anti-Myc antibodies. Results are of a representative of three experiments.
FIGS. 9a-b show the effects of insulin and calyculin A on Ser phosphorylation of PH/PTB-L mutants. FIG. 9a—CHO-T cells were transiently transfected with constructs expressing either Myc-PH/PTB^WT or the following PH/PTB mutants: S336A, S407A, S408A, S407/8A and S3A (S336/407/408A). Following 24 hours the cells were deprived of serum for 16 h, and were treated with insulin for the indicated times. Cell extracts were resolved on 10% SDS-PAGE and immunoblotted with anti-Myc antibodies. The results are of a representative of two-three experiments. FIG. 9b—CHO-T cells were transiently transfected with pcDNA3-myc-PH/PTB^WT or pcDNA3-myc-PH/PTB^S408A. Following 24 hours the cells were starved for 16 h and were then treated either with 100 nM insulin for 30 min or with 25 nM calyculin A for 60 min. Cell extracts were resolved on 10% SDS-PAGE and were immunoblotted with anti-Myc antibodies. Results are of a representative of two experiments.
Plasmids construction—i. Myc-tagged-IRS-1 The cDNA, encoding for the mouse IRS-1 in the pCNA-3 expression plasmid (35) was digested with Hind III and BspE-1. This deleted a 9 by fragment from the 5′-IRS-1 cDNA that was replaced by a double stranded synthetic oligonucleotide encoding the Myc tag and the missing amino-acids of IRS-1 (bold) […] (SEQ ID NO. 9). ii. Myc-tagged truncated IRS-1 (aa 1-430, PH/PTB-L) Myc-tagged mouse IRS-1 cDNA (N-terminus, 1-1290 nt), encoding for the first 430 aa of IRS-1, was PCR-amplified with the following primers. 5′-CAGGATCCGCATATGGAACAAAAGCTC-3′ (sense) (SEQ ID NO. 10); 5′-GAGAATTCATCAGGGACTAGAACCATA-3′ (anti-sense) (SEQ ID NO. 11), using as a template the pcDNA3-Myc-IRS-1 plasmid. The PCR product was ligated into a pGEM-T. The insert was excised from pGEM-T with BamH I and EcoR I (italic), and then was ligated into pcDNA3 at the same restriction sites to generate pcDNA3-Myc-IRS-1^PH/PTB-L. iii. Myc-tagged truncated IRS-1 (aa 1-365, PH/PTB-S) Myc-tagged mouse IRS-1 cDNA (N-terminus, 1-1095 nt), encoding for the first 365 aa of IRS-1, was PCR-amplified with the following primers: 5′ […]-3′ (sense) (SEQ ID NO. 12); 5′ […] 3′ (anti sense) (SEQ ID NO. 13) using as a template the pcDNA3-Myc-IRS-1. […]

Another assay deals with Fao cells. Briefly: Effect of inducers of insulin resistance on insulin-stimulated Tyr phosphorylation of IRS-1 in Fao cells. It is filed as cell-based, rat. Here is the method: FIGS. 5a-c show the effects of TPA and anisomycin on insulin-induced Tyr phosphorylation of IRS-1^7A in Fao cells. Fao cells were infected with Ad-Myc-IRS-1^WT or Ad-Myc-IRS-1^7A at 7×10^7 PFU/ml. Following 48 hours the cells were deprived of serum for 16 h, and were then treated for 60 min with 200 nM TPA (FIG. 5a); 50 ng/ml of anisomycin (FIG. 5b) or 1 μg/ml of anisomycin (FIG. 5c). This was followed by treatment with 100 nM insulin for 2 min (FIG. 5a) or for the indicated times (FIGS. 5b-c). Cell extracts were prepared, and samples (1 mg) were subjected to immunoprecipitation (IP) with anti-Myc antibodies (FIG. 5a). Immunocomplexes were resolved on 7.5 SDS-PAGE and were immunoblotted with the indicated antibodies. Alternatively, total cell extracts (FIGS. 5b-c) were resolved on 7.5% SDS-PAGE and immunoblotted with the indicated antibodies. Results of a representative of four experiments are presented. The results of two independent experiments done in duplicates were quantified (FIG. 5a, right panel).
FIGS. 6a-b show the dose dependent effect of Palmitic acid on Insulin-induced Tyr phosphorylation of IRS-1 mutants in Fao cells. Fao cells were infected with Ad-Myc-IRS-1^WT or Ad-Myc-IRS-1^7A at 7×10^7 PFU/ml. Following 24 hours the cells were deprived of serum for 12 h, and were then further incubated for 12 h with or without the indicated concentrations of palmitic acid in serum free medium prior to being stimulated with 100 nM insulin for the indicated times. Cell extracts (100 μg) were resolved on 7.5% SDS-PAGE and immunoblotted with anti-PY and anti-Myc antibodies. The results of two independent experiments done in duplicates were quantified.
FIGS. 11a-c show the effects of TPA and anisomycin on insulin-stimulated Tyr phosphorylation of IRS-1^WT, IRS-1^7A and IRS-1^408A. Fao cells were infected with Adeno-myc-IRS-1 wild type (WT); the 7A mutant; or the S408A mutant at a titer of 4-6×10^7 PFU/ml. Following 48 hours the cells were deprived of serum for 16 h, and were then treated for 60 min with 200 nM TPA (FIG. 11a), or 50 ng/ml anisomycin (FIG. 11b), followed by treatment with 100 nM insulin for the indicated times. Cell extracts were prepared, samples (1 mg) were subjected to immunoprecipitation (IP) with anti-Myc antibodies. Immunocomplexes were resolved on 7.5% SDS-PAGE and immunoblotted with anti-PY or anti IRS-1 antibodies.
Infection of Fao cells with adenovirus—Fao cells were grown in RPMI medium containing 10% FCS. At 70% confluence cells were infected with adenoviruses harboring the gene of interest at a titer of 7 10^7 PFU/ml. After incubation for 2 h hours at 37° C., the virus-containing medium was diluted 1:5 in fresh RPMI medium. After 24 h the medium was replaced with a fresh RPMI medium containing 10% FCS. […]

The subject of the next assay is IRS-1. Briefly: Effect of proteosome inhibitor on IRS-1 protein content and Tyr phosphorylation. It is filed as cell-based. The following applies: not shown.
Assay [1] concerns the target insulin receptor (IR) of Fao rat hepatoma cells (rat (Fao rat hepatoma cells)) (UniProt P15127). Briefly: cell-based or functional assay.

Where a SMILES comes first, the peptide text is derived from it. The star is where a group is joined. Cbz = O=C(OCc1ccccc1)*

Sequence of insulin receptor (IR) of Fao rat hepatoma cells (rat (Fao rat hepatoma cells)) (P15127 27-1383 limits assumed): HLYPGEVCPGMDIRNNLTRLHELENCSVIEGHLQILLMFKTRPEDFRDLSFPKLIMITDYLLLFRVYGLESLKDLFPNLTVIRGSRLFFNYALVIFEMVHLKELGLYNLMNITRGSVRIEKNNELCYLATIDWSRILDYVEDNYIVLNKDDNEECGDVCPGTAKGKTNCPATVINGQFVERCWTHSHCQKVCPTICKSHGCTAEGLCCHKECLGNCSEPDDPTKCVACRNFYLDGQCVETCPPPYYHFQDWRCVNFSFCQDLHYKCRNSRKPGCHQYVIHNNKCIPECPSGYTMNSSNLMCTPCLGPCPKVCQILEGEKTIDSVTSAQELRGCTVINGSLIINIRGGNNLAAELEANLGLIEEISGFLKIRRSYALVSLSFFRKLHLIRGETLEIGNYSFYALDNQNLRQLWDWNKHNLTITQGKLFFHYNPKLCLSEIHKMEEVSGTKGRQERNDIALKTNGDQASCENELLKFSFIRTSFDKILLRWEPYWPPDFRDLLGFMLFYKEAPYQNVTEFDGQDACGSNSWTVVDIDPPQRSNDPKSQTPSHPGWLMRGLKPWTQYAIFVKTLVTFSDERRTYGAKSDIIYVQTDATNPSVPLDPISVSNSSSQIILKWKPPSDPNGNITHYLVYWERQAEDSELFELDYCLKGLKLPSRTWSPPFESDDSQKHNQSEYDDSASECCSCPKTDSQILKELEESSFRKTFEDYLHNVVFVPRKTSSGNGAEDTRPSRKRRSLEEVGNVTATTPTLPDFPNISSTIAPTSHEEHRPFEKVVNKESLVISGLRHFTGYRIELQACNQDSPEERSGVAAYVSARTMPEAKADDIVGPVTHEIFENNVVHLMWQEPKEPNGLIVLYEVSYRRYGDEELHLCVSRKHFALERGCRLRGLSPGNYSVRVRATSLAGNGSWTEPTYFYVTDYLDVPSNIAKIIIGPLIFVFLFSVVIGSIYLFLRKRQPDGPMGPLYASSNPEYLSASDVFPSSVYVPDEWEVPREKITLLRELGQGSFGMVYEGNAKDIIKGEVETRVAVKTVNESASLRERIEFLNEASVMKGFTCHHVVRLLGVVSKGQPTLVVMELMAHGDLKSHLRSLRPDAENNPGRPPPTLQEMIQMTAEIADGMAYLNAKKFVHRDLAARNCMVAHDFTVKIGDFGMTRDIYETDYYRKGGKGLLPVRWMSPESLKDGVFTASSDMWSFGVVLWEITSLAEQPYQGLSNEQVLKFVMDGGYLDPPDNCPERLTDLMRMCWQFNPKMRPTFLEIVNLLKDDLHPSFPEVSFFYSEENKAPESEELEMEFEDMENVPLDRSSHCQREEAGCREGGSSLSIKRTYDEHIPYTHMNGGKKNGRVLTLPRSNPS

In the case of `COC[C@@H]([C@H](O)[C@H](O)C(=O)NCC[C@H](C)c1nc(/C=C/C[C@@H]2O[C@]3(C[C@@H](O)[C@@H]2C)O[C@H]([C@H](C[C@H](O)[C@H](C)[C@H](O)[C@H](C)/C=C(C)/C(C)=C/C=C/C(C)=C\C#N)OC)[C@H](OP(=O)(O)O)C3(C)C)co1)N(C)C` [Calyculin A], the “in vivo phosphorylation of S408” value in the assay with S408 of IRS-1 is given as “induced phosphorylation of S408”. Moreover, in the assay with CHO-T cells (25 nM calyculin A 60 min), the “Ser phosphorylation (mobility shift) of Myc-PH/PTB-L^WT” value is “triggers Ser phosphorylation” and the “mobility shift when Ser408 was mutated to Ala” value was “significantly reduced”.
Turning to `CCCCCCCCCCCCCCCC(=O)O` [FFA, Palmitic acid], in the assay with Fao cells (FFA 0.5-0.75 mM), the “reduction in insulin-stimulated Tyr phosphorylation of IRS-1^WT by FFA pre-treatment” value is given as roughly 35%.
Turning to `CC(C)C[C@@H](C=O)NC(=O)[C@H](CC(C)C)NC(=O)[C@H](CC(C)C)NC(=O)OCc1ccccc1` [MG-132] (Cbz-Leu-Leu-Leu-aldehyde), the “effect on protein content and Tyr phosphorylation patterns of IRS-1^7A and IRS-1^WT” value in the assay with IRS-1 is listed as “did not alter significantly”.
`CCCCCCCCCCCCCC(=O)O[C@@H]1[C@@H](C)[C@@]2(O)[C@@H](C=C(CO)C[C@]3(O)C(=O)C(C)=C[C@@H]23)[C@@H]2C(C)(C)[C@]12OC(C)=O` [TPA, phorbol 12-myristate 13-acetate]: the “inhibition of insulin-stimulated Tyr phosphorylation of Myc-IRS-1^WT by TPA pretreatment” value in the assay on Fao cells (200 nM TPA 60 min, then 100 nM insulin 2 min) is recorded as roughly 40%.
The molecule “Myc-IRS-1^WT (Myc-tagged wild-type mouse IRS-1 expressed in Fao cells from an adenoviral construct) (from UniProt P35569 4-1233)” yielded a reduction of Tyr phosphorylation content following prolonged (60 min) insulin treatment in assay [1] of 55%.

B1: PH/PTB-L^407/S408A: PH/PTB-L with Ser407 and Ser408 mutated to Ala (protein, UniProt P35569 1-430, looked up, variant S407A S408A)
chain: MASPPDTDGFSDVRKVGYLRKPKSMHKRFFVLRAASEAGGPARLEYYENEKKWRHKSSAPKRSIPLESCFNINKRADSKNKHLVALYTRDEHFAIAADSEAEQDSWYQALLQLHNRAKAHHDGAGGGCGGSCSGSSGVGEAGEDLSYDTGPGPAFKEVWQVILKPKGLGQTKNLIGIYRLCLTSKTISFVKLNSEAAAVVLQLMNIRRCGHSENFFFIEVGRSAVTGPGEFWMQVDDSVVAQNMHETILEAMRAMSDEFRPRSKSQSSSSCSNPISVPLRRHHLNNPPPSQVGLTRRSRTESITATSPASMVGGKPGSFRVRASSDGEGTMSRPASVDGSPVSPSTNRTHAHRHRGSSRLHPPLNHSRSIPMPSSRCSPSATSPVSLSSSSTSGHGSTSDCLFPRRAAASVSGSPSDGGFISSDEYGSSP
modifications: Myc tag
notes: PH/PTB-L with Ser407 and Ser408 mutated to Ala
On to B1, for which the “mobility shift following 30 min insulin treatment” value with CHO-T cells (CHO-T cells, 30 min insulin) is “abolished the mobility shift”.

The values above are taken from US20110104167A1, “Compositions and Methods for Diagnosing and Treating Insulin Resistance” (YEDA RESEARCH AND DEVELOPMENT CO. LTD., priority 2004, published 2011).
